Measurements taken from paper PMC12494099, “Discovery and Characterization of Novel IKZF1/3 Glue Degraders against Multiple Hematological Cancer Cell Lines” (Oncology Research, 2025).

Experiments:
Assay in all cases: Cell viability (CCK-8) assay
Type in all cases: cell-based
NCI-H929 = system: NCI-H929
Procedure: (§1) The plated at a density of 15,000 cells per well, and each well contained 100 µL of medium. Subsequently, different compounds (MGD-AX, MGD-BX, MGD-CX) were added to each well. […] To evaluate the antiproliferative effects of these compounds, the Cell Counting Kit-8 (CCK-8, #CX007, Epizyme, Shanghai, China) was used. All procedures were carried out in strict accordance with the manufacturer’s instructions (Dojindo Laboratories, Mamoto Ken, Japan).

Ocl-Ly3 = settings: 96 h, CCK-8
Procedure: as §1

MV-4-11 = settings: 96 h, CCK-8
Procedure: as §1

Row | Molecule | IC50 (NCI-H929; Homo sapiens, NCI-H929, 96 h) | IC50 (Ocl-Ly3) | IC50 (MV-4-11; Homo sapiens, MV4-11, 96 h) | IC50 (NCI-H929; 96 h) | IC50 (MV-4-11)
1 | Nc1cccc2c1CN(C1CCC(=O)NC1=O)C2=O (stereo not drawn) [Lenalidomide, reference compound] | 7.36 ± 0.7 µM | 27.6 ± 2.63 µM | 17.9 ± 1.7 µM |  | 
2 | O=C1CCC(NC(=O)c2cccc(CNC3CC3)c2)C(=O)N1 (stereo not drawn) [MGD-A1, 3-((cyclopropylamino)methyl)-N-(2,6-dioxopiperidin-3-yl)benzamide] | 10.3 ± 0.98 µM | > 33 µM | 7.34 ± 0.7 µM |  | 
3 | O=C1CCC(NC(=O)c2cccc(CNCC3CC3)c2)C(=O)N1 (stereo not drawn) [MGD-A2, 3-(((cyclopropylmethyl)amino)methyl)-N-(2,6-dioxopiperidin-3-yl)benzamide] | 12.7 ± 1.21 µM | 21.3 ± 2.03 µM | 8.3 ± 0.79 µM |  | 
4 | CC1CCCCN1Cc1cccc(C(=O)NC2CCC(=O)NC2=O)c1 (stereo not drawn) [MGD-A3, N-(2,6-dioxopiperidin-3-yl)-3-((2-methylpiperidin-1-yl)methyl)benzamide] | 5.39 ± 0.51 µM | 7.27 ± 0.69 µM | 6.03 ± 0.58 µM |  | 
5 | CC1CCCN(Cc2cccc(C(=O)NC3CCC(=O)NC3=O)c2)C1 (stereo not drawn) [MGD-A4, N-(2,6-dioxopiperidin-3-yl)-3-((3-methylpiperidin-1-yl)methyl)benzamide] | 4.56 ± 0.44 µM | 6.33 ± 0.6 µM | 3.11 ± 0.3 µM |  | 
6 | CC1CCN(Cc2cccc(C(=O)NC3CCC(=O)NC3=O)c2)CC1 (stereo not drawn) [MGD-A5, N-(2,6-dioxopiperidin-3-yl)-3-((4-methylpiperidin-1-yl)methyl)benzamide] | 2.88 ± 0.28 µM | 4.03 ± 0.38 µM | 2.03 ± 0.19 µM |  | 
7 | CC1CCCC(C)N1Cc1cccc(C(=O)NC2CCC(=O)NC2=O)c1 (stereo not drawn) [MGD-A6, 3-((2,6-dimethylpiperidin-1-yl)methyl)-N-(2,6-dioxopiperidin-3-yl)benzamide] | 3.02 ± 0.38 µM | 5.9 ± 0.56 µM | 3.44 ± 0.33 µM |  | 
8 | CCN1CCN(Cc2cccc(C(=O)NC3CCC(=O)NC3=O)c2)CC1 (stereo not drawn) [MGD-A8, N-(2,6-dioxopiperidin-3-yl)-3-((4-ethylpiperazin-1-yl)methyl)benzamide] | 0.9 ± 0.13 µM | 4.12 ± 0.39 µM | 0.8 ± 0.1 µM |  | 
9 | CC1CCCC(C)N1C(=O)c1cccc(C(=O)NC2CCC(=O)NC2=O)c1 (stereo not drawn) [MGD-A13, 3-(2,6-dimethylpiperidine-1-carbonyl)-N-(2,6-dioxopiperidin-3-yl)benzamide] | 10.3 ± 0.98 µM | 17.2 ± 1.64 µM | 9.26 ± 0.88 µM |  | 
10 | O=C1CCC(NC(=O)c2cccc(C(=O)N3CCSCC3)c2)C(=O)N1 (stereo not drawn) [MGD-A15, N-(2,6-dioxopiperidin-3-yl)-3-(thiomorpholine-4-carbonyl)benzamide] | 6.9 ± 0.66 µM | 9.43 ± 0.9 µM | 4.45 ± 0.42 µM |  | 
11 | O=C1CCC(NC(=O)c2cccc(CN3CCCC3)n2)C(=O)N1 (stereo not drawn) [MGD-B1, N-(2,6-dioxopiperidin-3-yl)-6-(pyrrolidin-1-ylmethyl)picolinamide] | 7.9 ± 0.75 µM | 22.4 ± 2.13 µM | 15 ± 1.42 µM |  | 
12 | O=C1CCC(NC(=O)c2cccc(CN3CCCCC3)n2)C(=O)N1 (stereo not drawn) [MGD-B2, N-(2,6-dioxopiperidin-3-yl)-6-(piperidin-1-ylmethyl)picolinamide] | 8.5 ± 0.81 µM | > 33 µM | 6.78 ± 0.65 µM |  | 
13 | CN1CCN(Cc2cccc(C(=O)NC3CCC(=O)NC3=O)n2)CC1 (stereo not drawn) [MGD-B3, N-(2,6-dioxopiperidin-3-yl)-6-((4-methylpiperazin-1-yl)methyl)picolinamide] | 0.92 ± 0.12 µM | 2.03 ± 0.39 µM | 0.72 ± 0.13 µM |  | 
14 | O=C1CCC(NC(=O)c2cccc(CN3CCOCC3)n2)C(=O)N1 (stereo not drawn) [MGD-B4, N-(2,6-dioxopiperidin-3-yl)-6-(morpholinomethyl)picolinamide] | 4.65 ± 0.44 µM | 15 ± 1.42 µM | 3.02 ± 0.29 µM |  | 
15 | O=C1CCC(NC(=O)c2cccc(CN3CCSCC3)n2)C(=O)N1 (stereo not drawn) [MGD-B5, N-(2,6-dioxopiperidin-3-yl)-6-(thiomorpholinomethyl)picolinamide] | 2.77 ± 0.36 µM | 4.68 ± 2.44 µM | 1.58 ± 0.47 µM |  | 
16 | O=C1CCC(NC(=O)c2cccc(CN3CCCC3=O)n2)C(=O)N1 (stereo not drawn) [MGD-B6, N-(2,6-dioxopiperidin-3-yl)-6-((2-oxopyrrolidin-1-yl)methyl)picolinamide] | 4.89 ± 0.47 µM | 27.5 ± 2.62 µM | 3.34 ± 0.32 µM |  | 
17 | O=C1CCC(NC(=O)c2cccc(CN3CCCCC3=O)n2)C(=O)N1 (stereo not drawn) [MGD-B7, N-(2,6-dioxopiperidin-3-yl)-6-((2-oxopiperidin-1-yl)methyl)picolinamide] | 3.21 ± 0.31 µM | 15.2 ± 1.44 µM | 5.65 ± 0.54 µM |  | 
18 | CN1CCN(Cc2cccc(C(=O)NC3CCC(=O)NC3=O)n2)C(=O)C1 (stereo not drawn) [MGD-B8, N-(2,6-dioxopiperidin-3-yl)-6-((4-methyl-2-oxopiperazin-1-yl)methyl)picolinamide] | 1.77 ± 0.17 µM | 8.43 ± 0.8 µM | 1.33 ± 0.13 µM |  | 
19 | O=C1CCC(NC(=O)c2cccc(CN3CCOCC3=O)n2)C(=O)N1 (stereo not drawn) [MGD-B9, N-(2,6-dioxopiperidin-3-yl)-6-((3-oxomorpholino)methyl)picolinamide] | 2.34 ± 0.22 µM | 9.35 ± 0.89 µM | 1.93 ± 0.18 µM |  | 
20 | O=C1CCC(NC(=O)c2cccc(CN3CCSCC3=O)n2)C(=O)N1 (stereo not drawn) [MGD-B10, N-(2,6-dioxopiperidin-3-yl)-6-((3-oxothiomorpholino)methyl)picolinamide] | 4.32 ± 0.41 µM | 13.2 ± 1.26 µM | 5.54 ± 0.53 µM |  | 
21 | CN1CCN(Cc2cccc(C(=O)NC3CCC(=O)NC3=O)c2F)CC1 (stereo not drawn) [MGD-C2, N-(2,6-dioxopiperidin-3-yl)-2-fluoro-3-((4-methylpiperazin-1-yl)methyl)benzamide] | 0.77 ± 0.04 µM | 1.64 ± 0.37 µM | 0.54 ± 0.05 µM |  | 
22 | O=C1CCC(NC(=O)c2cccc(CN3CCOCC3)c2F)C(=O)N1 (stereo not drawn) [MGD-C3, N-(2,6-dioxopiperidin-3-yl)-2-fluoro-3-(morpholinomethyl)benzamide] | 1.98 ± 0.19 µM | 2.39 ± 0.23 µM | 0.93 ± 0.048 µM |  | 
23 | O=C1CCC(NC(=O)c2cccc(CN3CCSCC3)c2F)C(=O)N1 (stereo not drawn) [MGD-C4, N-(2,6-dioxopiperidin-3-yl)-2-fluoro-3-(thiomorpholinomethyl)benzamide] | 1.79 ± 0.27 µM | 5.01 ± 0.48 µM | 2.43 ± 0.33 µM |  | 
24 | O=C1CCC(NC(=O)c2cccc(CN3CCCC3=O)c2F)C(=O)N1 (stereo not drawn) [MGD-C5, N-(2,6-dioxopiperidin-3-yl)-2-fluoro-3-((2-oxopyrrolidin-1-yl)methyl)benzamide] | 2.04 ± 0.19 µM | 5.05 ± 0.48 µM | 2.22 ± 0.21 µM |  | 
25 | O=C1CCC(NC(=O)c2cccc(CN3CCCCC3=O)c2F)C(=O)N1 (stereo not drawn) [MGD-C6, N-(2,6-dioxopiperidin-3-yl)-2-fluoro-3-((2-oxopiperidin-1-yl)methyl)benzamide] | 1.33 ± 0.13 µM | 5.95 ± 0.57 µM | 1.63 ± 0.16 µM |  | 
26 | O=C1CCC(NC(=O)c2cccc(CN3CCOCC3=O)c2F)C(=O)N1 (stereo not drawn) [MGD-C7, N-(2,6-dioxopiperidin-3-yl)-2-fluoro-3-((3-oxomorpholino)methyl)benzamide] | 0.93 ± 0.15 µM | 2.11 ± 0.2 µM | 0.68 ± 0.07 µM |  | 
27 | O=C1CCC(N2C(=O)c3ccccc3C2=O)C(=O)N1 (stereo not drawn) [Thalidomide, reference compound] | 9.86 ± 0.94 µM | > 33 µM | 26.5 ± 2.52 µM |  | 
28 | N-(2,6-dioxopiperidin-3-yl)-2-fluoro-3-((2-oxopiperidin-1-yl)methyl)benzamide [MGD-C8] |  | 3.28 ± 0.31 µM |  | 1.23 ± 0.12 µM | 1.73 ± 0.17 µM
29 | N-(2,6-dioxopiperidin-3-yl)-2-fluoro-3-(piperidin-1-ylmethyl)benzamide [MGD-C1] |  | 12.6 ± 1.2 µM |  | 6.91 ± 0.66 µM | 7.36 ± 0.7 µM
